# Where “and” joins values, the source holds several entries; their conditions need not be identical. Identical values can stand only once. Like-named read-outs stand apart in the source and are kept apart here.
# Tests used:
# Septoria nodorum = assay: Test on preventive effect against wheat glum bloth (Test Example 3); type: in vivo
# Procedure: Wheat (cultivar: Norin-61-go) was cultivated in a plastic pot having a diameter of 7.5 cm, and when it reached 1.5-leaf stage, a mixed chemical solution having the respective sample compounds adjusted to prescribed concentrations, was applied by a spray gun in an amount of 10 ml per seedling. After the chemical solution dried, a suspension of conidia of Septoria nodorum was sprayed and inoculated and maintained at 20° C. for 7 days (for the first 3 days maintained under high humidity condition). Thereafter, the area of lesions was investigated, and the diseased area ratio to non-treated section was obtained by the following equation. Diseased area ratio to non-treated section=(a/b)×100
# a: Average area of lesions in treated section
# b: Average area of lesions in non-treated section
# Further, the theoretical value was calculated by a Colby's formula and shown in brackets ( ) in Tables 3-1 to 3-14. Since the diseased area ratio to non-treated section (experimental value) is lower than the theoretical value, the composition of the present invention can be said to have a synergistic effect.
# Erysiphe graminis = assay: Test on preventive effect against wheat powdery mildew (Test Example 1); type: in vivo
# Botrytis cinerea [1] = assay: Test on preventive effect against kidney bean gray mold (Test Example 4); type: in vivo
# Procedure: Kidney bean (cultivar: Taisyou Kintoki) was cultivated in a plastic pot having a diameter of 12.0 cm, and when it reached 2.5-leaf stage, a mixed chemical solution having the respective test compounds adjusted to prescribed concentrations, was applied by a spray gun in an amount of 10 ml per seedling. After the chemical solution dried, the leaf was cut out, and a filter paper disk (8 mm in diameter) was placed on the leaf. Then, 120 μl of a suspension of spores of Botrytis cinerea (1.0×10^6 spores/ml) was dropped thereon and inoculated. The system was maintained under a humidity condition at 20° C. for three days, whereupon the area of lesions was investigated, and the diseased area ratio to non-treated section was obtained in the same manner as in Test Example 3. Further, the theoretical value was calculated by a Colby's formula and shown in brackets ( ) in Tables 4-1 to 4-19. Since the diseased area ratio to non-treated section (experimental value) is lower than the theoretical value, the composition of the present invention can be said to have a synergistic effect.
# Phyicularia oryzae = type: cell-based
# Botrytis cinerea [2] = assay: Test on antifungal activity against gray mold pathogen, intersecting filter papers (Test Examples 7 and 8); type: cell-based; conditions: for controlling effect (contact of filter paper with mycelial growth area of Botrytis cinerea): single use, filter paper immersed in 30 ppm solution, 20° C. for 4 days; for distance from both ends of the filter paper to mycelial growth area of Botrytis cinerea (average): single use section, 30 ppm
# Botrytis cinerea [3] = assay: Test on antifungal activity against gray mold pathogen, mycelial growth on agar (Test Example 6); type: cell-based
# Procedure: Mycelial growth of Botrytis cinerea preliminarily obtained by cultivation was punched out by a cork borer having a diameter of 4 mm and transplanted on a potato sucrose agar medium containing mixed chemical agents adjusted to prescribed concentrations. The system was left to stand at 25° C. for 3 days for cultivation, whereupon the diameter of mycelial growth was measured. The incidence to non-treated section was obtained in the same manner as the above Test Example 5, and the results are shown in Table 6-1 to 6-3.
# Further, the theoretical value was calculated by a Colby's formula and shown in brackets ( ) in Tables 6-1 to 6-3. Since the incidence to non-treated section is lower than the theoretical value, the composition of the present invention can be said to have a synergistic effect.
# Sphaerotheca fuliginea = type: in vivo
smiles,measurement,setting,value
"Cc1ccsc1C(=O)NC(C)(C)C(=O)c1ccc(Cl)c(Cl)c1 [Compound No. 2, N-[(3′,4′-dichloro-1,1-dimethyl)phenacyl]-3-methyl-2-thiophenecarboxamide]",diseased area ratio to non-treated section (experimental value),Septoria nodorum; single use at 12.5 ppm,50.0
same,diseased area ratio to non-treated section (experimental value),Septoria nodorum; single use at 50 ppm,35.0
same,diseased area ratio to non-treated section,Erysiphe graminis; Compound (a) alone 125 ppm,97.5 and 90.0
same,diseased area ratio to non-treated section,Erysiphe graminis; Compound (a) alone 250 ppm,95.0 and 75.0
same,diseased area ratio to non-treated section,Erysiphe graminis; Compound (a) alone 500 ppm,70.0
same,diseased area ratio to non-treated section (experimental value),Botrytis cinerea [1]; single use at 4 ppm,65.0
same,incidence to non-treated section (mycelial growth diameter),Phyicularia oryzae,82.6
same,controlling effect (contact of filter paper with mycelial growth area of Botrytis cinerea),Botrytis cinerea [2],no adequate controlling effect
"Cc1cc(OC(C)C)ccc1C(=O)C(C)(C)NC(=O)c1ncccc1C(F)(F)F [Compound No. 4, N-[[2′-methyl-4′-(2-propyloxy)-1,1-dimethyl]phenacyl]-3-trifluoromethyl-2-pyridinecarboxamide]",diseased area ratio to non-treated section (experimental value),Septoria nodorum; single use at 12.5 ppm,35.0
same,diseased area ratio to non-treated section (experimental value),Septoria nodorum; single use at 50 ppm,20.0
same,diseased area ratio to non-treated section,Erysiphe graminis; Compound (a) alone 125 ppm,5.0 and 3.6
same,diseased area ratio to non-treated section,Erysiphe graminis; Compound (a) alone 250 ppm,0.6
same,diseased area ratio to non-treated section (experimental value),Botrytis cinerea [1]; single use at 4 ppm,70.0 and 79.7
same,diseased area ratio to non-treated section (experimental value),Botrytis cinerea [1]; single use at 8 ppm,64.6
same,incidence to non-treated section (mycelial growth diameter),Phyicularia oryzae,69.6 and 71.7
same,incidence to non-treated section (mycelial growth diameter),Botrytis cinerea [3]; single use at 0.5 ppm,45.2
same,diseased area ratio to non-treated section,Sphaerotheca fuliginea; Compound (a) alone 2 ppm,7.5
"Cc1cc(OC(C)C)ccc1C(=O)C(C)(C)NC(=O)c1sccc1C [Compound No. 5, N-[[2′-methyl-4′-(2-propyloxy)-1,1-dimethyl]phenacyl]-3-methyl-2-thiophenecarboxamide]",diseased area ratio to non-treated section (experimental value),Septoria nodorum; single use at 12.5 ppm,30.0
same,diseased area ratio to non-treated section (experimental value),Septoria nodorum; single use at 50 ppm,20.0
same,diseased area ratio to non-treated section,Erysiphe graminis; Compound (a) alone 250 ppm,0.6
same,diseased area ratio to non-treated section (experimental value),Botrytis cinerea [1]; single use at 4 ppm,74.0 and 83.5
same,diseased area ratio to non-treated section (experimental value),Botrytis cinerea [1]; single use at 8 ppm,74.7
same,incidence to non-treated section (mycelial growth diameter),Botrytis cinerea [3]; single use at 5 ppm,32.3
"Cc1ccsc1C(=O)NC(C)(C)C(=O)c1ccc(OC(C)C)cc1 [Compound No. 8, N-[[4′-(2-propyloxy)-1,1-dimethyl]phenacyl]-3-methyl-2-thiophenecarboxamide]",diseased area ratio to non-treated section (experimental value),Septoria nodorum; single use at 12.5 ppm,35.0
same,diseased area ratio to non-treated section (experimental value),Septoria nodorum; single use at 50 ppm,20.0
same,diseased area ratio to non-treated section (experimental value),Sphaerotheca fuliginea; single use at 1 ppm,35.0
same,diseased area ratio to non-treated section (experimental value),Sphaerotheca fuliginea; single use at 2 ppm,10.0
"CCCC(C)Oc1ccc(C(=O)C(C)(C)NC(=O)c2ncccc2C(F)(F)F)cc1 (stereo not drawn) [Compound No. 11, N-[[4′-(2-pentyloxy)-1,1-dimethyl]phenacyl]-3-trifluoromethyl-2-pyridinecarboxamide]",diseased area ratio to non-treated section (experimental value),Septoria nodorum; single use at 12.5 ppm,50.0
same,diseased area ratio to non-treated section (experimental value),Septoria nodorum; single use at 50 ppm,25.0
same,diseased area ratio to non-treated section (experimental value),Botrytis cinerea [1]; single use at 4 ppm,70.0
same,diseased area ratio to non-treated section (experimental value),Botrytis cinerea [1]; single use at 8 ppm,55.7
same,incidence to non-treated section (mycelial growth diameter),Phyicularia oryzae,63.0 and 73.9
same,incidence to non-treated section (mycelial growth diameter),Botrytis cinerea [3]; single use at 5 ppm,46.0
same,incidence to non-treated section (mycelial growth diameter),Botrytis cinerea [3]; single use at 50 ppm,32.3
same,diseased area ratio to non-treated section (experimental value),Sphaerotheca fuliginea; single use at 2 ppm,7.5 and 12.5 and 15.0 and 10.0
"CC1CCN(c2c(-c3c(F)cc(F)cc3F)c(Cl)nc3ncnn23)CC1 [Compound α, 5-chloro-7-(4-methylpiperidin-1-yl)-6-(2,4,6-trifluorophenyl)-[1,2,4]triazolo[1,5-a]pyrimidine, reference compound]",diseased area ratio to non-treated section (experimental value),Botrytis cinerea [1]; single use at 4 ppm,43.0
same,diseased area ratio to non-treated section (experimental value),Botrytis cinerea [1]; single use at 8 ppm,15.0
"COc1ccccc1N1CCSC1=C(C#N)Sc1cc(C(F)(F)F)ccc1F [Compound γ, 2-(2-fluoro-5-(trifluoromethyl)phenylthio)-2-(3-(2-methoxyphenyl)thiazolidin-2-yliden)acetonitrile, reference compound]",diseased area ratio to non-treated section (experimental value),Botrytis cinerea [1]; single use at 1 ppm,88.6
same,diseased area ratio to non-treated section (experimental value),Botrytis cinerea [1]; single use at 10 ppm,88.6
Cc1cc(OC(C)C)ccc1C(=O)C(C)(C)NC(=O)c1sccc1C [No. 5],diseased area ratio to non-treated section,Erysiphe graminis; Compound No.x alone 16 ppm,25.0
same,diseased area ratio to non-treated section,Erysiphe graminis; Compound No.x alone 31 ppm,17.5 and 12.5
same,diseased area ratio to non-treated section,Erysiphe graminis; Compound No.x alone 63 ppm,10.0
same,diseased area ratio to non-treated section,Erysiphe graminis; Compound No.x alone 125 ppm,2.5
same,diseased area ratio to non-treated section,Sphaerotheca fuliginea; Compound No.x alone 8 ppm,2.5
Cc1ccsc1C(=O)NC(C)(C)C(=O)c1ccc(OC(C)C)cc1 [No. 8],diseased area ratio to non-treated section,Erysiphe graminis; Compound No.x alone 63 ppm,60.0
same,diseased area ratio to non-treated section,Erysiphe graminis; Compound No.x alone 125 ppm,55.0 and 30.0
same,diseased area ratio to non-treated section,Sphaerotheca fuliginea; Compound No.x alone 1 ppm,81.3
same,diseased area ratio to non-treated section,Sphaerotheca fuliginea; Compound No.x alone 2 ppm,45.0 and 75.0
CCCC(C)Oc1ccc(C(=O)C(C)(C)NC(=O)c2ncccc2C(F)(F)F)cc1 (stereo not drawn) [No. 11],diseased area ratio to non-treated section,Erysiphe graminis; Compound No.x alone 63 ppm,45.0 and 60.0
same,diseased area ratio to non-treated section,Erysiphe graminis; Compound No.x alone 125 ppm,35.0
same,diseased area ratio to non-treated section,Erysiphe graminis; Compound No.x alone 250 ppm,22.5 and 12.5
same,diseased area ratio to non-treated section,Sphaerotheca fuliginea; Compound No.x alone 8 ppm,4.0
O=C1C2CC=CCC2C(=O)N1SC(Cl)(Cl)Cl (stereo not drawn) [captan],incidence to non-treated section (mycelial growth diameter),Botrytis cinerea [3]; single use at 1 ppm,94.4
O=C(Cc1ccccc1)N/C(=N\OCC1CC1)c1c(C(F)(F)F)ccc(F)c1F [cyflufenamid],diseased area ratio to non-treated section (experimental value),Botrytis cinerea [1]; single use at 10 ppm,87.3
same,diseased area ratio to non-treated section (experimental value),Botrytis cinerea [1]; single use at 100 ppm,82.3
C/C(=N/Nc1nc(C)cc(C)n1)c1ccccc1C [ferimzone],incidence to non-treated section (mycelial growth diameter),Phyicularia oryzae; single use at 0.5 ppm,10.9
"O=[N+]([O-])c1cc(C(F)(F)F)c(Cl)c([N+](=O)[O-])c1Nc1ncc(C(F)(F)F)cc1Cl [fluazinam, reference compound]",distance from both ends of the filter paper to mycelial growth area of Botrytis cinerea (average),Botrytis cinerea [2],5 mm
same,controlling effect (contact of filter paper with mycelial growth area of Botrytis cinerea),Botrytis cinerea [2],a certain controlling effect
same,diseased area ratio to non-treated section,Sphaerotheca fuliginea; partner fungicide alone 125 ppm,17.5
same,diseased area ratio to non-treated section,Sphaerotheca fuliginea; partner fungicide alone 250 ppm,4.0
same,diseased area ratio to non-treated section,Sphaerotheca fuliginea; partner fungicide alone 500 ppm,2.0
CCCCC(C#N)(Cn1cncn1)c1ccc(Cl)cc1 (stereo not drawn) [myclobutanil],diseased area ratio to non-treated section (experimental value),Septoria nodorum; single use at 5 ppm,60.0
same,diseased area ratio to non-treated section (experimental value),Septoria nodorum; single use at 20 ppm,35.0
CC1(C)COC(C)(CCCc2ccc(Cl)cc2)N1C(=O)n1ccnc1.CC1(C)COC(C)(CCCc2ccc(Cl)cc2)N1C(=O)n1ccnc1.O=C(O)/C=C/C(=O)O (stereo not drawn) [oxpoconazole fumarate],distance from both ends of the filter paper to mycelial growth area of Botrytis cinerea (average),Botrytis cinerea [2],7.5 mm
CCCN(CCOc1c(Cl)cc(Cl)cc1Cl)C(=O)n1ccnc1 [prochloraz],diseased area ratio to non-treated section (experimental value),Septoria nodorum; single use at 5 ppm,40.0
same,diseased area ratio to non-treated section (experimental value),Septoria nodorum; single use at 20 ppm,15.0
CCCOc1nc2ccc(I)cc2c(=O)n1CCC [proquinazid],diseased area ratio to non-treated section (experimental value),Botrytis cinerea [1]; single use at 10 ppm,96.2
same,diseased area ratio to non-treated section (experimental value),Botrytis cinerea [1]; single use at 100 ppm,92.4
OC(Cc1ccccc1Cl)(Cn1nc[nH]c1=S)C1(Cl)CC1 (stereo not drawn) [prothioconazole],diseased area ratio to non-treated section (experimental value),Septoria nodorum; single use at 10 ppm,30.0
COC(=O)NCc1cc(/C(C)=N/OCc2cccc(C)n2)ccc1Cl [pyribencarb],diseased area ratio to non-treated section (experimental value),Botrytis cinerea [1]; single use at 4 ppm,70.0
same,diseased area ratio to non-treated section (experimental value),Botrytis cinerea [1]; single use at 8 ppm,65.0
Fc1ccc(Oc2ccnc3cc(Cl)cc(Cl)c23)cc1 [quinoxyfen],diseased area ratio to non-treated section,Erysiphe graminis; fungicide (b) alone 0.06 ppm,80.0
same,diseased area ratio to non-treated section,Erysiphe graminis; fungicide (b) alone 0.125 ppm,77.5
CCCN(CC)CC1COC2(CCC(C(C)(C)C)CC2)O1 (stereo not drawn) [spiroxamine],diseased area ratio to non-treated section,Erysiphe graminis; fungicide (b) alone 12.5 ppm,97.0
same,diseased area ratio to non-treated section,Erysiphe graminis; fungicide (b) alone 25 ppm,15.2
same,diseased area ratio to non-treated section,Erysiphe graminis; fungicide (b) alone 50 ppm,6.1
S1SSSSSSS1 [sulfur],diseased area ratio to non-treated section,Erysiphe graminis; fungicide (b) alone 50 ppm,97.5
same,diseased area ratio to non-treated section,Erysiphe graminis; fungicide (b) alone 500 ppm,40.0
CC(C)(C)C(O)(CCc1ccc(Cl)cc1)Cn1cncn1 (stereo not drawn) [tebuconazole],diseased area ratio to non-treated section,Erysiphe graminis; fungicide (b) alone 0.5 ppm,10.0
same,diseased area ratio to non-treated section,Erysiphe graminis; fungicide (b) alone 1 ppm,5.0
FC(F)C(F)(F)OCC(Cn1cncn1)c1ccc(Cl)cc1Cl (stereo not drawn) [tetraconazole],diseased area ratio to non-treated section,Erysiphe graminis; fungicide (b) alone 0.125 ppm,60.0
same,diseased area ratio to non-treated section,Erysiphe graminis; fungicide (b) alone 0.5 ppm,52.5
Cc1cccc2sc3nncn3c12 [tricyclazole],diseased area ratio to non-treated section,Erysiphe graminis; fungicide (b) alone 50 ppm,22.5
same,diseased area ratio to non-treated section,Erysiphe graminis; fungicide (b) alone 500 ppm,50.0
